According to PubChem BioAssay (NCI):
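Compound exposure: 48 hours, 5 concentrations, 96-well plates. GI50 is the concentration that inhibits growth by half. TGI is the concentration that stops growth completely.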

Experiments:
Assay in all cases: NCI anticancer screen, dose series, 48 h
[1] = tested on: PC-3 prostate
[2] = tested on: RPMI-8226 leukemia
[3] = tested on: NCI-H226 lung
[4] = tested on: OVCAR-8 ovarian
[5] = tested on: UACC-62 melanoma
[6] = tested on: NCI-H460 lung
[7] = tested on: UACC-257 melanoma
[8] = tested on: SW-620 colon
[9] = tested on: COLO 205 colon
[10] = tested on: ACHN renal
[11] = tested on: NCI/ADR-RES ovarian
[12] = tested on: UO-31 renal
[13] = tested on: DU-145 prostate
[14] = tested on: MDA-MB-231 breast
[15] = tested on: TK-10 renal
[16] = tested on: MCF7 breast
[17] = tested on: MDA-MB-435
[18] = tested on: NCI-H23 lung
[19] = tested on: SK-OV-3 ovarian
[20] = tested on: A549 NSCLC
[21] = tested on: HCT-15 colon
[22] = tested on: U251 CNS
[23] = tested on: IGROV1 ovarian
[24] = tested on: NCI-H522 lung
[25] = tested on: SNB-75 CNS
[26] = tested on: LOX IMVI melanoma
[27] = tested on: CAKI-1 renal
[28] = tested on: EKVX NSCLC
[29] = tested on: KM12 colon
[30] = tested on: BT-549 breast
[31] = tested on: HCC-2998 colon
[32] = tested on: HT29 colon
[33] = tested on: 786-0 renal
[34] = tested on: OVCAR-4 ovarian
[35] = tested on: HCT-116 colon
[36] = tested on: HL-60(TB) leukemia
[37] = tested on: A498 renal
[38] = tested on: T-47D breast
[39] = tested on: SF-295 CNS
[40] = tested on: RXF 393 renal
[41] = tested on: HOP-92 NSCLC
[42] = tested on: M14 melanoma
[43] = tested on: SNB-19 CNS
[44] = tested on: MALME-3M melanoma
[45] = tested on: MOLT-4 leukemia
[46] = tested on: CCRF-CEM leukemia
[47] = tested on: SF-539 CNS
[48] = tested on: SK-MEL-2 melanoma
[49] = tested on: SK-MEL-28 melanoma
[50] = tested on: SF-268 CNS
[51] = tested on: OVCAR-5 ovarian
[52] = tested on: OVCAR-3 ovarian
[53] = tested on: K-562 leukemia
[54] = tested on: HS 578T breast
[55] = tested on: SK-MEL-5 melanoma
[56] = tested on: HOP-62 NSCLC
[57] = tested on: SN12C renal
[58] = tested on: SR leukemia

SMILES: O=c1c2cc(I)ccc2nc(-c2cccs2)n1-c1ccc(S(=O)(=O)Nc2nccs2)cc1
- GI50 [1]: 38.4 µM
- TGI [1]: > 100 µM
- GI50 [2]: 38.4 µM
- TGI [2]: > 100 µM
- GI50 [3]: 24.9 µM
- TGI [3]: 74.8 µM
- GI50 [4]: 32 µM
- TGI [4]: 98 µM
- GI50 [5]: 22.8 µM
- TGI [5]: 52.1 µM
- GI50 [6]: 34.2 µM
- TGI [6]: > 100 µM
- GI50 [7]: 41.8 µM
- TGI [7]: > 100 µM
- GI50 [8]: 31.3 µM
- TGI [8]: > 100 µM
- GI50 [9]: 33.5 µM
- TGI [9]: > 100 µM
- GI50 [10]: 41.3 µM
- TGI [10]: > 100 µM
- GI50 [11]: 88.1 µM
- TGI [11]: > 100 µM
- GI50 [12]: 22.6 µM
- TGI [12]: 51.6 µM
- GI50 [13]: 27.4 µM
- TGI [13]: > 100 µM
- GI50 [14]: 25.1 µM
- TGI [14]: 73.5 µM
- GI50 [15]: 35.2 µM
- TGI [15]: > 100 µM
- GI50 [16]: 41.7 µM
- TGI [16]: > 100 µM
- GI50 [17]: 36.8 µM
- TGI [17]: > 100 µM
- GI50 [18]: 22.5 µM
- TGI [18]: > 100 µM
- GI50 [19]: 66.6 µM
- TGI [19]: > 100 µM
- GI50 [20]: 49.1 µM
- TGI [20]: > 100 µM
- GI50 [21]: 42.6 µM
- TGI [21]: > 100 µM
- GI50 [22]: 27.2 µM
- TGI [22]: 81.7 µM
- GI50 [23]: 33.2 µM
- TGI [23]: > 100 µM
- GI50 [24]: 25.9 µM
- TGI [24]: 76 µM
- GI50 [25]: > 100 µM
- TGI [25]: > 100 µM
- GI50 [26]: 28.9 µM
- TGI [26]: 82.8 µM
- GI50 [27]: 21.1 µM
- TGI [27]: 52 µM
- GI50 [28]: 20.8 µM
- TGI [28]: 55.5 µM
- GI50 [29]: 39.2 µM
- TGI [29]: > 100 µM
- GI50 [30]: 22.3 µM
- TGI [30]: 60.6 µM
- GI50 [31]: 29.5 µM
- TGI [31]: 62.5 µM
- GI50 [32]: > 100 µM
- TGI [32]: > 100 µM
- GI50 [33]: 54.1 µM
- TGI [33]: > 100 µM
- GI50 [34]: 86.9 µM
- TGI [34]: > 100 µM
- GI50 [35]: 37.1 µM
- TGI [35]: > 100 µM
- GI50 [36]: 50.4 µM
- TGI [36]: > 100 µM
- GI50 [37]: 22.7 µM
- TGI [37]: 71.5 µM
- GI50 [38]: 34.4 µM
- TGI [38]: > 100 µM
- GI50 [39]: 27.6 µM
- TGI [39]: > 100 µM
- GI50 [40]: 40 µM
- TGI [40]: > 100 µM
- GI50 [41]: 28.8 µM
- TGI [41]: > 100 µM
- GI50 [42]: > 100 µM
- TGI [42]: > 100 µM
- GI50 [43]: 41.9 µM
- TGI [43]: > 100 µM
- GI50 [44]: 36.7 µM
- TGI [44]: 99.9 µM
- GI50 [45]: 61.4 µM
- TGI [45]: > 100 µM
- GI50 [46]: 38.4 µM
- TGI [46]: > 100 µM
- GI50 [47]: 22.6 µM
- TGI [47]: 44.5 µM
- GI50 [48]: 33.2 µM
- TGI [48]: > 100 µM
- GI50 [49]: 78.5 µM
- TGI [49]: > 100 µM
- GI50 [50]: 29.6 µM
- TGI [50]: > 100 µM
- GI50 [51]: 35.3 µM
- TGI [51]: > 100 µM
- GI50 [52]: 25.3 µM
- TGI [52]: 83.8 µM
- GI50 [53]: 36.6 µM
- TGI [53]: > 100 µM
- GI50 [54]: 26.2 µM
- TGI [54]: 84.1 µM
- GI50 [55]: 19.7 µM
- TGI [55]: 44.2 µM
- GI50 [56]: 42.8 µM
- TGI [56]: > 100 µM
- GI50 [57]: 37.2 µM
- TGI [57]: > 100 µM

SMILES: COc1cc(-n2cncc2-c2ccc3ccccc3c2)cc(OC)c1OC
- GI50 [1]: 0.0158 µM
- TGI [1]: > 100 µM
- GI50 [2]: 0.0543 µM
- TGI [2]: > 100 µM
- GI50 [3]: 2.03 µM
- TGI [3]: > 62 µM
- GI50 [4]: 0.0546 µM
- TGI [4]: > 100 µM
- TGI [5]: > 54.5 µM
- GI50 [6]: < 0.0179 µM
- TGI [6]: > 100 µM
- GI50 [7]: > 87 µM
- TGI [7]: > 100 µM
- GI50 [8]: < 0.0159 µM
- TGI [8]: > 100 µM
- GI50 [9]: < 0.01 µM
- TGI [9]: 0.391 µM
- TGI [10]: > 57.2 µM
- GI50 [12]: 0.401 µM
- TGI [12]: > 100 µM
- GI50 [13]: 0.0324 µM
- TGI [13]: > 100 µM
- GI50 [14]: 0.0595 µM
- TGI [14]: > 57.6 µM
- GI50 [15]: 33.8 µM
- TGI [15]: > 100 µM
- GI50 [16]: < 0.01 µM
- TGI [16]: > 100 µM
- GI50 [17]: < 0.01 µM
- TGI [17]: > 100 µM
- GI50 [18]: 0.0255 µM
- TGI [18]: 5.91 µM
- GI50 [19]: 0.0518 µM
- TGI [19]: > 69.4 µM
- GI50 [58]: < 0.01 µM
- TGI [58]: 10.4 µM
- GI50 [20]: 0.0269 µM
- TGI [20]: > 100 µM
- GI50 [21]: < 0.0169 µM
- TGI [21]: > 53.2 µM
- GI50 [22]: 0.023 µM
- TGI [22]: 16.7 µM
- GI50 [23]: 0.0872 µM
- TGI [23]: > 38 µM
- GI50 [24]: < 0.01 µM
- GI50 [26]: 0.0872 µM
- TGI [26]: > 41.8 µM
- GI50 [27]: 0.037 µM
- TGI [27]: > 100 µM
- GI50 [28]: 0.0657 µM
- TGI [28]: > 100 µM
- GI50 [29]: < 0.01 µM
- TGI [29]: > 100 µM
- GI50 [30]: 0.0621 µM
- TGI [30]: > 100 µM
- GI50 [31]: < 0.0116 µM
- TGI [31]: 0.0297 µM
- GI50 [32]: < 0.0144 µM
- TGI [32]: > 70.6 µM
- GI50 [33]: 0.0496 µM
- TGI [33]: 18.5 µM
- TGI [34]: > 100 µM
- GI50 [35]: < 0.0181 µM
- TGI [35]: > 34.6 µM
- GI50 [36]: < 0.01 µM
- TGI [36]: 1.54 µM
- GI50 [37]: < 0.01 µM
- TGI [37]: 1.41 µM
- GI50 [38]: > 100 µM
- TGI [38]: > 100 µM
- GI50 [39]: < 0.01 µM
- TGI [39]: > 100 µM
- GI50 [40]: 0.0199 µM
- TGI [40]: 28.9 µM
- GI50 [41]: 0.957 µM
- TGI [41]: > 100 µM
- GI50 [42]: 0.0171 µM
- TGI [42]: 5.62 µM
- GI50 [43]: 0.0234 µM
- TGI [43]: > 100 µM
- GI50 [44]: > 100 µM
- TGI [44]: > 100 µM
- GI50 [45]: 0.0538 µM
- TGI [45]: > 66.9 µM
- GI50 [46]: 0.0344 µM
- TGI [46]: > 100 µM
- GI50 [47]: 0.0184 µM
- TGI [47]: 73.4 µM
- GI50 [48]: 0.0309 µM
- TGI [48]: 51.8 µM
- TGI [49]: > 100 µM
- GI50 [50]: 0.026 µM
- TGI [50]: > 59 µM
- GI50 [51]: 0.0484 µM
- TGI [51]: 53.4 µM
- GI50 [52]: < 0.0179 µM
- TGI [52]: > 100 µM
- GI50 [53]: < 0.01 µM
- TGI [53]: > 83.4 µM
- GI50 [54]: < 0.0127 µM
- TGI [54]: > 100 µM
- GI50 [55]: < 0.01 µM
- GI50 [56]: 0.0391 µM
- TGI [56]: 25.1 µM
- GI50 [57]: 1.05 µM
- TGI [57]: > 100 µM
